Experimental findings from patent publication US8093030B2, “Thermostable viral polymerases and methods of use” (Lucigen Corporation, priority 2005, dated 2012) are described below.

Series [1] has as its target polymerase 3173 (SEQ ID NO:6) mutant D49A (uncultured virus, UniProt R4KMS7, D72A). Briefly: Inhibition of 5' Rox-labeled primer extension by chain terminators (ABI 310 Genetic Analyzer). Format: biochemical. To be noted: ddNTPs 50, 500 and 5000 μM each vs 50 μM each dNTP (up to 100-fold molar excess); 70° C., 30 minutes. Here is the method:
(§1) In separate reactions, ddGTP, ddATP, ddTTP, and ddCTP were added to the above mix in concentrations of 50, 500 and 5000 μM each. Five units of polymerase 3173 mutant D49A were added and the reactions were incubated for 30 minutes at 70° C. Extension of the primer was detected by the ABI 310 Genetic Analyzer in Gene Scan mode.

The subject of a further series is lacIq gene. As to the kind of experiment: Fidelity assay, lacIq amplification with blue/white colony count. To be noted: 25 PCR cycles; target size 349 for lacIq.
Series [2] deals with polymerase 3173 (SEQ ID NO:6) double mutant D49A/F418Y, SEQ ID NO:27 (uncultured virus, UniProt R4KMS7, D72A/F441Y). Briefly: Fluorescent primer extension assay with ddGTP. It is filed as biochemical. On the procedure: as §1
The polymerase 3173 double mutant D49A/F418Y was also tested in the fluorescent primer extension assay described above.

The subject of series [3] is ROX-labeled 37 nt primer annealed to 41 nt template. As to the kind of experiment: Primer extension assay of heat-treated clone extracts (ABI 310 capillary electrophoresis). Format: biochemical. To be noted: extract heated 70° C. 10 min; reaction 70° C. 10 minutes. Here is the method: 34 complete polymerase genes from the library described in Examples 3 and 4, as well as 24 additional viral genes from three other similarly prepared libraries, were constitutively expressed in the E. CLONI 10 G cells (Lucigen, Middleton, Wis.). The proteins were extracted, heated to 70° C. for 10 minutes and tested for DNA polymerase activity using a primer extension assay as follows.
A primer of 37 nucleotides having the sequence shown in SEQ ID NO:23, labeled on its 5′ end with ROX, was annealed to a template of 41 nucleotides having the sequence shown in SEQ ID NO:24. […] The reaction was incubated at 70° C. for 10 minutes. The reactions were analyzed using an ABI 310 Genetic Analyzer. […] Of the 58 clones tested, a total of ten clones expressed detectable DNA polymerase (DNAP) activity. The clone number and corresponding polynucleotide sequence, polypeptide sequence, sequence similarity and E (expect)-values for these polymerases are shown below in Table 1.

Chain of polymerase 3173 (SEQ ID NO:6) mutant D49A (R4KMS7 entry or part of it D72A): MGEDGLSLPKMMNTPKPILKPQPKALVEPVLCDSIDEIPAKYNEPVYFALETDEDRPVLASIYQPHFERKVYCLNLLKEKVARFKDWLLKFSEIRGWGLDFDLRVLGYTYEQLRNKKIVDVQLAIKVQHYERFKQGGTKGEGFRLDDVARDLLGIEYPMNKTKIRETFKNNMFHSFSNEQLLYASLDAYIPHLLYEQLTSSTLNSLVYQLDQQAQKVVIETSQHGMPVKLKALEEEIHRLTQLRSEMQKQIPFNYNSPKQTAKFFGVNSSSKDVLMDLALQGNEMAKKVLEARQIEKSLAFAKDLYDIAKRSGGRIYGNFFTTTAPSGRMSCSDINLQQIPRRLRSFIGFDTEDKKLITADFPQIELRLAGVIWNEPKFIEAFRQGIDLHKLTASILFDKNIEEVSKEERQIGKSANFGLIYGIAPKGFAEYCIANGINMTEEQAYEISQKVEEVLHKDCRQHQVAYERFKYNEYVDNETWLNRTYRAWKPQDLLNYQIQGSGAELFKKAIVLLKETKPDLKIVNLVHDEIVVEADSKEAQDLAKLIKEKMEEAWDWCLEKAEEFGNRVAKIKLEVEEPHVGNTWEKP
Chain of polymerase 3173 (SEQ ID NO:6) double mutant D49A/F418Y, SEQ ID NO:27 (R4KMS7 entry or part of it D72A/F441Y): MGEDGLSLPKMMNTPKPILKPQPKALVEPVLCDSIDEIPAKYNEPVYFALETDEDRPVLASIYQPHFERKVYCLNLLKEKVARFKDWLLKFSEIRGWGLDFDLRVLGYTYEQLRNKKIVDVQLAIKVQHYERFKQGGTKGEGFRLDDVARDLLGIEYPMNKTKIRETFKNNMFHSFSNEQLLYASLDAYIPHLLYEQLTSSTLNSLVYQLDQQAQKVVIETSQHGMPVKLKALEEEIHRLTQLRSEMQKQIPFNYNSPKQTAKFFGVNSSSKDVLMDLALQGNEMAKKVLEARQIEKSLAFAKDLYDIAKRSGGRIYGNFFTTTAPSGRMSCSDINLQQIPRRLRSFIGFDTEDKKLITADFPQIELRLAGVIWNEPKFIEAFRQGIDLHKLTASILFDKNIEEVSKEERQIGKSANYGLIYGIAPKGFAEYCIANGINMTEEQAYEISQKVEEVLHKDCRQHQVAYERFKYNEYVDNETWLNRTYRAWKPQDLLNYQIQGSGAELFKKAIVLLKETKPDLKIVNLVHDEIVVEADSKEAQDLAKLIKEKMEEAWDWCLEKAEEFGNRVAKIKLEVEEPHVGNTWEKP
Procedure for lacIq gene: Fidelity was determined by a modification of the standard assay in which the lacIq gene is amplified by the DNA polymerase of interest and inserted into a plasmid containing genes encoding a functional lacZ alpha peptide and a selectable marker. Primers of SEQ ID NOS:28 and 29 were used to amplify a sequence containing both the lacIq and the KanR gene. […] Normally a white phenotype is seen for clone containing this construct when plated on X-Gal. Mutation of the lacIq results in a blue phenotype for the colonies when plated on X-Gal.
For high fidelity PCR amplification, five units of the wild-type (proofreading) DNA polymerase 3173 (SEQ ID NO: 6) was tested using the following mix (50 mM Tris HCl (pH 9.0 at 25° C.), 50 mM KCl, 10 mM (NH4)2SO4, 1.5 mM MgSO4, 1.5 mM MgCl2, 0.1% triton-X100, 250 mM ectoine and 0.2 mM each of dGTP, dATP, dTTP and dCTP. Opposing primers of SEQ ID 28 and 29 (1 μM each) amplified the expected 2 k kb product from template SEQ ID 30 (10 ng). After thermal cycling (94° C. for 1 minute, 25 cycles of (94° C. for 15 seconds, 60° C. for 15 seconds, 72° C. for 2.5 minutes) and 72° C. 7 minutes), reaction products were quantified to determine “fold amplification,” (see below) using agarose gel electrophoresis. Both primers contain Eco109I sites. The PCR product was digested with Eco109I and inserted into the Eco109I site of pUC19. 10 G cells transformed by the construct were plated on LB plates containing ampicillin (100 μg/ml), kanamycin (30 μg/ml) and X-Gal (50 μg/ml). Blue and white colony counts were used for the fidelity determinations.

For `Nc1ncnc2c1ncn2[C@H]1CC[C@@H](COP(=O)(O)OP(=O)(O)OP(=O)(O)O)O1` [ddATP], the “inhibition of primer extension” value in series [1] is “no inhibition of primer extension was detected”.
Take “Taq: standard commercial DNA polymerase (Lucigen) used for comparison [reference compound]”: in the series with lacIq gene, the Fidelity was found to be 9.76E+03.
For `Nc1nc2c(ncn2[C@H]2CC[C@@H](COP(=O)(O)OP(=O)(O)OP(=O)(O)O)O2)c(=O)[nH]1` [ddGTP], the “inhibition of primer extension” value in series [1] was “no inhibition of primer extension was detected”; in series [2] (0.2× ratio of ddGTP:dGTP), “nearly complete inhibition of primer extension, with no extension continuing beyond the fourth G residue”; in series [2] (2× ratio of ddGTP:dGTP) it was “almost completely inhibited any extension”.
Turning to `Cc1cn([C@H]2CC[C@@H](COP(=O)(O)OP(=O)(O)OP(=O)(O)O)O2)c(=O)[nH]c1=O` [ddTTP], the “inhibition of primer extension” value in series [1] is recorded as “no inhibition of primer extension was detected”.
Same read-out and setting: the value for `Nc1ccn([C@H]2CC[C@@H](COP(=O)(O)OP(=O)(O)OP(=O)(O)O)O2)c(=O)n1` [ddCTP] was “no inhibition of primer extension was detected”.

B1: Clone 967: thermostable viral DNA polymerase clone, polypeptide SEQ ID NO: 14 (protein)
chain: MQKEIPFNYNSPKQTAKLFGIDSSSKDVLMDLALRGNEVAKKVLEARQIEKSLAFAKDLYDIAKKNGGRIHGNFFTTTAPSGRMSCSDINLQQIPRRLRQFIGFETEDKKLITADFPQIELRLAGVMWNEPEFLKAFRDGIDLHKLTASILFDKKINEVSKEERQIGKSANFGLIYGISPKGFAEYCISNGINITEEMAIEIVKKWKKFYRKIAEQHQLAYERFKYAEFVDNETWLNRPYRAYKPQDLLNYQIQGSGAELFKKAIILLKETKPDLKLVNLVHDEIVVETSTEEAEDIALLVKQKMEEAWDYCLEKAKEFGNNVADIKLEVEKPNISSVWEKE
modifications: Uncultured newly isolated virus
Regarding B1, the “Exo (exonuclease activity, either 3′-5′ or 5′-3′)” value (shortened to “Exo”) in series [3] is recorded as “No”.

B2: Clone 488: thermostable viral DNA polymerase clone, polypeptide SEQ ID NO: 4 (protein)
chain: AVGTWITTLQKLGFTYEELEDKEVLDLLSIARLVLPERFKENGFSLDVVLKEVLGIDYKFDKKTIRKTFTPLLMTQEQLEYIASDVIYLPALKEKLDEKFNKRLWLPYILDMEATKILAEVSNNGMPFLKEKAKEELSRLSKELEGLRKELGFNPNSPKETQKVLNTPDTSEATLMKLIISNSSKKAIAEKVIQARKIQKVIAMINKYLNYDRVKGTFWTTTAPSGRMSCDKENLQQIPRSIRYLFGFDENSDKTLVIADYPQIELRLAGVLWKEPKFIQAFNEGKDLHKQTASIIYGIPYEEVNKEQRQIAKSANFGLIYGMSVEGFANYCIKNGIPMDTQTAQHIVNSFFNFYGKIAEKHKEGNLIIQSQGIAEGYTWLGRRYIAQRLNDYLNYQIQGSGAELLKKAVMEIKSKYPYIKIVNLVHDEIVVEAYKDDAQDIARIIKQEMENAWEWCIQEAQKLGVDLTPVKLECENPTISNVWEK
modifications: Uncultured newly isolated virus
Regarding B2, in series [3], the “Exo” value is reported as “No”.

B3: Clone 4110: thermostable viral DNA polymerase clone, polypeptide SEQ ID NO: 8 (protein)
chain: MGLDQILDMSYFVDSGATMLKLILRGSGGKNVVTVPAPFNPYFFIKKRDLDRAQSILPDYARVEDADAITAEGERVVKISVPTPPLVRVVREKLHEEGIESYEADIPYTRRVMIDLDLKVAYPETVAAFDIEVDATKGFPDINNPQSRVLSISVYDGSEEIFLCSDDEIEMFKEFNKLLRKYDVLIGWNSAAFDYPYLVERAKVLGYYVDEEMFQHVDIFGIFQTYFKREMSDFKLKTVALKVLGSKVPLGALLDFERPGDIRKLTEFFEKRRDLLKLYNMDQTKAIWMINSESGVLQTYITQARLANIIPWHRVSPRTDSSQEYISYNNDCRDLVLKKALAHKPRIVFPSKKNGENEDWDEDAKESTYTGAIVFNPIPGLWENVVLLDFASMYPRVIMTFNISYDTWTPNPGENDILAPHGGFITSREGFLPTVLRELEGYRSLAKKMVDAYEPGDPMRVIWNARQFAFKLILVSAYGVAGFRHSRLYRVEIAESITGYTRDAIMKAREVIERHGWRVLYGDTDSLFLYNPKITSVEKASEVASSELLPAINSFIRDYVVERWRVPRSRVVLEFKVDRVYSKLKLLSVKKRYYGLVAWEERMLEQPYIQIKGLEARRGDWPDLVKEIQSEVIKLYLLEGPIAVDRYLKEMKRKLLSGEIPLEKLVIKKHLNKRLDEYKHNAPHYRAARKLLEMRFPVRTGDRIEFIYLDDKVIPMVPGLKLSEVDLKKWWRKYVVPVVERLEIESRGS
modifications: Uncultured newly isolated virus
For B3, in series [3], the “Exo” value is on record as “No”.
